Laboratory results as given in patent publication US12227498B2, “Heterocyclic amine derivative and pharmaceutical composition comprising same” (Daewoong Pharmaceutical Co., Ltd., priority 2018, dated 2025).

Tests used:
[1] = biological target: T1, BTK (Homo sapiens, UniProt Q06187); assay: Inhibitory activity against BTK, ADP-Glo + BTK Kinase enzyme system kit (Promega); format: biochemical; details: BTK enzyme 1 ng/μl; ATP 10 µM; 15 min preincubation at room temperature; 1 hour at 30° C.; luminescence; duplicate
T1 construct: purchased Promega Corporation
T1 sequence (Q06187 whole entry): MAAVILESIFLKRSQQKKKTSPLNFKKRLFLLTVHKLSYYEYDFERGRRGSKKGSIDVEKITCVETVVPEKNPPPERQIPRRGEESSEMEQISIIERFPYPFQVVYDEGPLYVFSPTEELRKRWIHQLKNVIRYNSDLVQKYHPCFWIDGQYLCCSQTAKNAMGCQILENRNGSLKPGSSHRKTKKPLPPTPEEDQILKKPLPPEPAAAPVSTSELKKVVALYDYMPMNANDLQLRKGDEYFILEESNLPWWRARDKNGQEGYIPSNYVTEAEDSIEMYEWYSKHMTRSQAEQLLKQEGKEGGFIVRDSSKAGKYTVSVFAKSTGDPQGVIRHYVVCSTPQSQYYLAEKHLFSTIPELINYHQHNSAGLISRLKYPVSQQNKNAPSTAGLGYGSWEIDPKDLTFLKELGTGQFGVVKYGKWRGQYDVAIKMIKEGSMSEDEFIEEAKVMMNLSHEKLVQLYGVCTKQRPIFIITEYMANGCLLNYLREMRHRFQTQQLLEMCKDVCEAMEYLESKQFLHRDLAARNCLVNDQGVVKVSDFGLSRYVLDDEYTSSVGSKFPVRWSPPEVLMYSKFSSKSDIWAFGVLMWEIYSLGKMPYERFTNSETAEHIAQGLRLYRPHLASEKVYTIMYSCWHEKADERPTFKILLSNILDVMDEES
Protocol: (§1) Inhibitory activities against BTK and ITK were measured for the compounds prepared in the above Examples as follows.
The inhibitory activities against BTK were evaluated using ‘ADP-Glo™+BTK Kinase enzyme system’ kit (Promega Corporation). […] 5 μl of substrate and 5 μl of ATP prepared so as to have a final concentration of 10 µM were added to the plate on which reactions were completed, and then allowed to react at 30° C. for 1 hour. All wells of the plate were treated with 25 μl of ADP-Glo™ reagent and allowed to react at 30° C. for 40 minutes. After that, all wells were treated with 50 μl of kinase detection buffer, and then reacted at 30° C. for 30 minutes under light shielding conditions. For the plate on which all reactions were completed, luminescence was measured and the results were calculated. Evaluation was carried out in duplicate, and negative control and positive control were calculated depending on whether or not the enzyme was added without treatment of the compound. The IC50 was calculated based on the calculated values.

[2] = biological target: T2, ITK (Homo sapiens, UniProt Q08881); assay: Inhibitory activity against ITK, ADP-Glo + ITK Kinase enzyme system kit (Promega); format: biochemical; details: ITK enzyme 0.4 ng/μl; 15 min preincubation at room temperature; 1 hour at 30° C.; luminescence; duplicate
T2 construct: purchased Promega Corporation
T2 sequence (Q08881 1-620): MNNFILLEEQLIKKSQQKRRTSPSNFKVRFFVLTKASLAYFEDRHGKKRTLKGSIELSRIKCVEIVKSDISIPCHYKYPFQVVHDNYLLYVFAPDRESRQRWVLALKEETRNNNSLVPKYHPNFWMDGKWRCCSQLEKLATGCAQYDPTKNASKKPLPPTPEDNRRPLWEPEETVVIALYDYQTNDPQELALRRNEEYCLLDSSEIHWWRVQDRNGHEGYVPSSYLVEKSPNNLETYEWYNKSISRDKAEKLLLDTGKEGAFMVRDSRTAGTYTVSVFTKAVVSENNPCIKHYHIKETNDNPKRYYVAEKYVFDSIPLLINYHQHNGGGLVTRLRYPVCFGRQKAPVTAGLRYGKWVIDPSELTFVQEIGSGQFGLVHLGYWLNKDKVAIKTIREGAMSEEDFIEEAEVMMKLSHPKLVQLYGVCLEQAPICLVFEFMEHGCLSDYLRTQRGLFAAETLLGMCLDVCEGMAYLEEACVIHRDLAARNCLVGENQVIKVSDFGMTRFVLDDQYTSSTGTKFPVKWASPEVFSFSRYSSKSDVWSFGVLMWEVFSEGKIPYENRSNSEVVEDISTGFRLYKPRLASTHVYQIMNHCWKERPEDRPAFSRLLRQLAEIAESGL
Protocol: as §1
The inhibitory activity against ITK was evaluated using ‘ADP-Glo™+ITK Kinase enzyme system’ kit (Promega Corporation). […] To the plate on which reactions were completed, 5 μl of substrate and 5 μl of ATP prepared so as to have a final concentration of […] were added and then allowed to react at 30° C. for 1 hour. All wells of the plate were treated with 25 μl of ADP-Glo™ reagent and then allowed to react at 30° C. for 40 minutes. After that, all wells were treated with 50 μl of kinase detection buffer, and then allowed to react at 30° C. for 30 minutes under light shielding conditions. For the plate on which all reactions were completed, luminescence was measured and the results were calculated. Evaluation was carried out in duplicate, and negative control and positive control were calculated depending on whether or not the enzyme was added without treatment of the compound. The IC50 was calculated based on the calculated values.

Structure (SMILES)	IC50 [1] [nM]	IC50 [2] [nM]
C=CC(=O)N1CCC(Nc2cc(CN3CCOCC3)nc(Nc3ncc(C)s3)n2)C1 (stereo not drawn) [Example 8, 1-(3-((2-((5-methylthiazol-2-yl)amino)-6-(morpholinomethyl)pyrimidin-4-yl)amino)pyrrolidin-1-yl) prop-2-en-1-one]	72.5	71.7
C=CC(=O)N1CCC[C@H](Nc2cc(CN3CCOCC3)cc(Nc3nccs3)n2)C1 [Example 51, (S)-1-(3-(4-(morpholinomethyl)-6-(thiazol-2-ylamino)pyridin-2-ylamino)piperidin-1-yl) prop-2-en-1-one]	~1000	~1000
CC#CC(=O)N1CCC[C@H](Nc2nc(CN3CCOCC3)cc(Nc3ncc(C)s3)n2)C1 [Example 23, (S)-1-(3-((4-((5-methylthiazol-2-yl)amino)-6-(morpholinomethyl)pyrimidin-2-yl)amino)piperidin-1-yl) but-2-yn-1-one]	36.6	–
C#CC(=O)N1CCC[C@H](Nc2cc(OC3CCN(C)CC3)cc(Nc3ncc(C)s3)n2)C1 [Example 40, (S)-1-(3-((4-((1-methylpiperidin-4-yl)oxy)-6-((5-methylthiazol-2-yl)amino)pyridin-2-yl)amino)piperidin-1-yl) prop-2-yn-1-one]	10.3	10.8
C=CC(=O)N1CCC[C@H](Nc2cc(CN3CCOCC3)cc(Nc3cc[nH]n3)n2)C1 [Example 48, (S)-1-(3-(6-(1H-pyrazol-3-ylamino)-4-(morpholinomethyl)pyridin-2-ylamino)piperidin-1-yl) prop-2-en-1-one]	~1000	~1000
C=CC(=O)N1CCC[C@H](Nc2nc(CN3CCCCC3)cc(Nc3ncc(C)s3)n2)C1 [Example 31, (S)-1-(3-((4-((5-methylthiazol-2-yl)amino)-6-(piperidin-1-ylmethyl)pyrimidin-2-yl)amino)piperidin-1-yl) prop-2-en-1-one]	8.8	15.6
Cc1cnc(Nc2cc(CN3CCOCC3)cc(N[C@H]3CCCN(C(=O)CCCl)C3)n2)s1 [Example 45, (S)-3-chloro-1-(3-((6-((5-methylthiazol-2-yl)amino)-4-(morpholinomethyl)pyridin-2-yl)amino)piperidin-1-yl) propan-1-one]	30.8	91.6
C=CC(=O)N1CC2(CC(Nc3cc(CN4CCOCC4)cc(Nc4ncc(C)s4)n3)C2)C1 [Example 30, 1-(6-((6-((5-methylthiazol-2-yl)amino)-4-(morpholinomethyl)pyridin-2-yl)amino)-2-azaspiro[3.3]heptan-2-yl) prop-2-en-1-one]	67.1	47
C/C=C/C(=O)N1CCC(Nc2cc(CN3CCOCC3)nc(Nc3ncc(C)s3)n2)C1 (stereo not drawn) [Example 9, (E)-1-(3-((2-((5-methylthiazol-2-yl)amino)-6-(morpholinomethyl)pyrimidin-4-yl)amino)pyrrolidin-1-yl) but-2-en-1-one]	> 1000	> 1000
CC#CC(=O)N1CCC(Nc2cc(CN3CCOCC3)cc(Nc3ncc(C)s3)n2)CC1 [Example 19, 1-(4-((6-((5-methylthiazol-2-yl)amino)-4-(morpholinomethyl)pyridin-2-yl)amino)piperidin-1-yl) but-2-yn-1-one]	875	–

Now those with a lower IC50 [1], led by results:

IC50 [1] [nM]	IC50 [2] [nM]	Structure (SMILES)
7.7	42.8	C=CC(=O)N1CCC[C@H](Nc2cc(CN3CCOCC3)cc(Nc3ccccn3)n2)C1 [Example 53, (S)-1-(3-(4-(morpholinomethyl)-6-(pyridin-2-ylamino)pyridin-2-ylamino)piperidin-1-yl) prop-2-en-1-one]
7.5	4.8	C=CC(=O)N1CCC[C@H](Nc2cc(-c3ccccc3)cc(Nc3ncc(C)s3)n2)C1 [Example 39, (S)-1-(3-((6-((5-methylthiazol-2-yl)amino)-4-phenylpyridin-2-yl)amino)piperidin-1-yl) prop-2-en-1-one]
6.1	9	C=CC(=O)N1CCC[C@H](Nc2cc(CN3CCN(CCCN)CC3)cc(Nc3ncc(C)s3)n2)C1 [Example 47, (S)-1-(3-(4-((4-(3-aminopropyl)piperazin-1-yl)methyl)-6-(5-methylthiazol-2-vlamino)pyridin-2-vlamino)piperidin-1-yl) prop-2-en-1-one]
5.2	31.8	Cc1cnc(Nc2cc(CN3CCOCC3)cc(N[C@H]3CCCN(C(=O)/C=C/Cl)C3)n2)s1 [Example 46, (S,E)-3-chloro-1-(3-(6-(5-methylthiazol-2-ylamino)-4-(morpholinomethyl)pyridin-2-ylamino)piperidin-1-yl) prop-2-en-1-one]
3.9	1.8	C=CC(=O)N1CCC[C@H](Nc2cc(Cc3cccnc3)cc(Nc3ncc(C)s3)n2)C1 [Example 36, (S)-1-(3-((6-((5-methylthiazol-2-yl)amino)-4-(pyridin-3-ylmethyl)pyridin-2-yl)amino)piperidin-1-yl) prop-2-en-1-one]
2.4	> 40	C=CC(=O)N1CCC(Oc2cc(CN3CCOCC3)cc(Nc3ncc(C)s3)n2)C1 (stereo not drawn) [Example 10, 1-(3-((6-((5-methylthiazol-2-yl)amino)-4-(morpholinomethyl)pyridin-2-yl)oxy)pyrrolidin-1-yl) prop-2-en-1-one]
2.2	2.3	C=CC(=O)N1CC[C@H](Nc2nc(CN3CCOCC3)cc(Nc3ncc(C)s3)n2)C1 [Example 24, (S)-1-(3-((4-((5-methylthiazol-2-yl)amino)-6-(morpholinomethyl)pyrimidin-2-yl)amino)pyrrolidin-1-yl) prop-2-en-1-one]
2.2	17.7	C=CC(=O)N1CCC[C@H](N(C)c2cc(CN3CCOCC3)cc(Nc3ncc(C)s3)n2)C1 [Example 26, (S)-1-(3-(methyl (6-((5-methylthiazol-2-yl)amino)-4-(morpholinomethyl)pyridin-2-yl)amino)piperidin-1-yl) prop-2-en-1-one]
2.1	13.4	C=CC(=O)N1CCC[C@H](Nc2cc(C)cc(Nc3ncc(C)s3)n2)C1 [Example 35, (S)-1-(3-((4-methyl-6-((5-methylthiazol-2-yl)amino)pyridin-2-yl)amino)piperidin-1-yl) prop-2-en-1-one]
2	3	C=CC(=O)N1CCC[C@H](Nc2cc(CN3CCOCC3)cc(Nc3ncc(C(F)(F)F)s3)n2)C1 [Example 49, (S)-1-(3-(4-(morpholinomethyl)-6-(5-(trifluoromethyl)thiazol-2-ylamino)pyridin-2-ylamino)piperidin-1-yl) prop-2-en-1-one]
1.6	2.6	C=CC(=O)N1CCC[C@H](Nc2cc(C#N)cc(Nc3ncc(C)s3)n2)C1 [Example 38]
1.5	1.9	C=CC(=O)N1CCCC(Nc2nc(CN3CCOCC3)cc(Nc3ncc(C)s3)n2)C1 (stereo not drawn) [Example 17, 1-(3-((4-((5-methylthiazol-2-yl)amino)-6-(morpholinomethyl)pyrimidin-2-yl)amino)piperidin-1-yl) prop-2-en-1-one]
1.3	1.9	C=CC(=O)N1CCC[C@H](Nc2nc(CN3CCOCC3)cc(Nc3ncc(C)s3)n2)C1 [Example 21, (S)-1-(3-((4-((5-methylthiazol-2-yl)amino)-6-(morpholinomethyl)pyrimidin-2-yl)amino)piperidin-1-yl) prop-2-en-1-one]
1.2	1	C=CC(=O)N1CCC[C@H](Nc2cc(CN3CCN(CCOC)CC3)cc(Nc3ncc(C)s3)n2)C1 [Example 22]
0.4	1.6	C=CC(=O)N1CCC[C@@H](Nc2cc(CN3CCOCC3)cc(Nc3ncc(C)s3)n2)C1 [Example 4, (R)-1-(3-((6-((5-methylthiazol-2-yl)amino)-4-(morpholinomethyl)pyridin-2-yl)amino)piperidin-1-yl) prop-2-en-1-one]
